Sequences and labels used below:
B1: Urinastatin (protein, UniProt P02760 206-352, looked up)
Inter-alpha-trypsin inhibitor …: AVLPQEEEGSGGGQLVTEVTKKEDSCQLGYSAGPCMGMTSRYFYNGTSMACETFQYGGCMGNGNNFVTEKECLQTCRTVAACNLPIVRGPCRAFIQLWAFDAVKGKCVLFPYGGCQGNGNKFYSEKECREYCGVPGDGDEELLRFSN
modifications: Inter-alpha-trypsin inhibitor light chain
notes: interferes with liquefaction

The values that follow come from paper PMC10878532, “Sperm Toolbox—A selection of small molecules to study human spermatozoa” (PLOS ONE, 2024).

Structures can show the parent of a compound that is named as a salt.

In the first experiment the test system is human spermatozoa. Kind of experiment: Authors' own unpublished screening campaigns ('This study'). The experiment is classed as cell-based.
Settings: not given
The text has this: Because there is so little known about the molecular mechanisms that control sperm motility, we are unable to develop hypotheses of potential targets when new hits are identified in the sperm motility assay. However, it is now well-established that features derived from images in phenotypic assays, when compared to phenotypes measured on reference compounds, can accurately stratify genetic or chemical perturbations in phenotypic screens. […] Compound annotations are included in the dataset derived from the STB and indicate that Enzymes/Kinases, Receptors, Channels and Transporters are the most represented target of the STB compound classes (Fig 1D).
List of compounds included in Sperm Toolbox. Published Phenotypes are summaries of reported effects on sperm function related to other processes (e.g. spermatogenesis, liquefaction, or ejaculation).
In the case of `CCS(=O)(=O)Nc1ccc2c(c1)/C(=C(/Nc1ccc(CN3CCCCC3)cc1)c1ccccc1)C(=O)N2` [Hesperadin hydrochloride], the “Phenotype observed in own screening campaigns (Published Phenotype, References 'This study')” value (“Phenotype observed” below) was “Reduces sperm motility”.

`NC(=O)Nc1cc(-c2cccc(F)c2)sc1C(=O)N[C@H]1CCCNC1` [AZD 7762 hydrochloride]: the “Phenotype observed” value is “Reduces sperm motility”.

In the case of `CCCCCCCCOc1ccc(-c2noc([C@@H]3CCCN3C(=N)N)n2)cc1C(F)(F)F` [SLM 6031434 hydrochloride], the “Phenotype observed” value was “Induces acrosome reaction”.

On to `[O-][S+](c1ccccc1)c1ccc2nnnn2n1` (stereo not shown) [Ro 106–9920], for which the “Phenotype observed” value is on record as “Reduces sperm motility”.

As to `Cc1ccc(S(=O)(=O)c2ccc([N+](=O)[O-])o2)cc1` [NSC 697923], the “Phenotype observed” value was “Reduces sperm motility”.

Consider `CCOc1ccc(-c2nc(-c3cccc4c3CCC4NCCO)no2)cc1OCC` (stereo not shown) [CYM 5442 hydrchloride], for which the “Phenotype observed” value is reported as “Reduces sperm motility; induces acrosome reaction”.

On to `Clc1ccc(C(OCCN2CCCCC2)c2ccccc2)cc1` (stereo not shown) [Cloperastine hydrochloride], for which the “Phenotype observed” value is “Reduces sperm motility”.

The subject of another experiment is spermatozoa.
Assay: not given
Also on record: method as in per compound as listed in column References of Table 1. The following applies: summaries of reported effects; ref per compound as listed in Table 1; cited from earlier work.
For `Cc1cc2c(C(C)C)c(O)c(O)c(C=O)c2c(O)c1-c1c(C)cc2c(C(C)C)c(O)c(O)c(C=O)c2c1O` [Gossypol], the “Published Phenotype” value was “Causes azoospermia”.

Take `O=c1sn(-c2cccc3ccccc23)c(=O)n1Cc1ccccc1` [Tideglusib]: the “Published Phenotype” value is “Spermicidal; vaginal treatment”.

As to `Nc1nc(Cl)cc(N(Cc2cccs2)C2CC2)n1` [LRE1], the “Published Phenotype” value is “Prevents hyperactivation”.

On to `c1cnc2c(c1)ccc1cccnc12` [Phenanthroline], for which the “Published Phenotype” value was “Inhibit proteolytic activity of PSA”.

As for `[Na+].[Na+].[Na+].[O]=[V]([O-])([O-])[O-]` [Sodium orthovanadate], the “Published Phenotype” value is “Blocks progesterone induced acrosome reaction; blocks progesterone induced Ca^2+ response”.

Regarding `OCCN(CCO)c1nc(N2CCCCC2)c2nc(N(CCO)CCO)nc(N3CCCCC3)c2n1` [Dipyridamole], the “Published Phenotype” value is recorded as “Enhances sperm motility”.

On to `COC(=O)[C@]1(C)CC[C@]2(C)CC[C@]3(C)C4=CC=C5C(=CC(=O)C(O)=C5C)[C@]4(C)CC[C@@]3(C)[C@@H]2C1` [Pristimerin], for which the “Published Phenotype” value is on record as “Modulates sperm motility; reduces progesterone induced Ca^2+ response”.

With `COc1cc2nc(N(C)CCCNC(=O)C3CCCO3)nc(N)c2cc1OC` (stereo not shown) [Alfuzosin], the “Published Phenotype” value was “Interferes with ejaculation”.

Turning to `CCCCCCCCCCCCCCCCOCC(COCC(F)(F)F)OP(=O)(O)OC` (stereo not shown) [MJ33], the “Published Phenotype” value is on record as “Prevents capacitation-associated tyrosine phosphorylation by PKA”.

As to `O=C(Nc1ccc([N+](=O)[O-])cc1Cl)c1cc(Cl)ccc1O` [Niclosamide], the “Published Phenotype” value was “Shape abnormality”.

On to `Cc1sc2c(c1C)C(c1ccc(Cl)cc1)=N[C@@H](CC(=O)OC(C)(C)C)c1nnc(C)n1-2` [JQ1], for which the “Published Phenotype” value is reported as “Interferes with spermatogenesis; reduces sperm count; reduces motility”.

As for `Nc1nonc1C(=O)c1cccc(OCc2nc3ccccc3[nH]2)c1` [ASI-8], the “Published Phenotype” value was “Blocks soluble adenyl cyclase (sAC)”.

Regarding `CN(c1ccccc1CNc1nc(Nc2ccc3c(c2)CC(=O)N3)ncc1C(F)(F)F)S(C)(=O)=O` [PF 431396], the “Published Phenotype” value is given as “Blocks capacitation”.

Regarding `COCC(=O)O[C@]1(CCN(C)CCCc2nc3ccccc3[nH]2)CCc2cc(F)ccc2[C@@H]1C(C)C` [Mibefradil], the “Published Phenotype” value is given as “Blocks progesterone induced Ca^2+ response”.

As to `Cc1[nH]c(/C=C2\C(=O)Nc3ccc(S(=O)(=O)Cc4c(Cl)cccc4Cl)cc32)c(C)c1C(=O)N1CCC[C@@H]1CN1CCCC1` [Pha-665752], the “Published Phenotype” value is recorded as “Modulates P4 evoked Ca^2+ response”.

As for `CCCCN1C[C@H](O)[C@@H](O)[C@H](O)[C@H]1CO` [Miglustat], the “Published Phenotype” value was “Interferes with spermatogenesis”.

`C=CC[C@@H]1/C=C(\C)C[C@H](C)C[C@H](OC)[C@H]2O[C@@](O)(C(=O)C(=O)N3CCCC[C@H]3C(=O)O[C@H](/C(C)=C/[C@@H]3CC[C@@H](O)[C@H](OC)C3)[C@H](C)[C@@H](O)CC1=O)[C@H](C)C[C@@H]2OC` [Tacrolimus]: the “Published Phenotype” value is given as “Blocks progesterone induced acrosome reaction”.

Take `Oc1c(Cl)cc(Cl)cc1Sc1cc(Cl)cc(Cl)c1O` [Bithionol]: the “Published Phenotype” value was “Blocks sAC”.

Consider `c1ccc2c(c1)SCc1c-2[nH]c2ccccc12` [PD 146176], for which the “Published Phenotype” value was “Antagonizing negative effects of ROS on sperm function such as acrosome reaction”.

Turning to `CC(C)C(C(=O)OC(C#N)c1cccc(Oc2ccccc2)c1)c1ccc(Cl)cc1` (stereo not shown) [Fenvalerate], the “Published Phenotype” value was “Blocks progesterone induced acrosome reaction”.

With `CCOC(=O)CSc1nc(=O)c(NCC(=O)OC)n[nH]1` [Compound B4], the “Published Phenotype” value is “Reduces sperm motility”.

Consider `COc1cn(-c2ccc(-n3cccn3)cc2F)nc(-c2ccnn2-c2ccccc2)c1=O` [Tak-063], for which the “Published Phenotype” value is reported as “Enhances sperm motility”.

Turning to `COc1cc(SC)ccc1C(=O)N1CCC(Cc2ccccc2)CC1` [JX 401], the “Published Phenotype” value is listed as “Modulates Ca^2+ response”.

As to `CCOc1ccccc1OCCN[C@H](C)Cc1ccc(OC)c(S(N)(=O)=O)c1` [Tamsulosin], the “Published Phenotype” value is “Interferes with ejaculation”.

Consider `COc1cc2ncn(-c3cc(OCc4ccccc4C(F)(F)F)c(C(N)=O)s3)c2cc1OC` [GW 843682X], for which the “Published Phenotype” value was “Enhances sperm motility”.

Consider `CCCCCCOC(=O)[C@]1(O)C[C@@H]2O[C@@]1(C)n1c3ccccc3c3c4c(c5c6ccccc6n2c5c31)C(=O)NC4` [KT 5720], for which the “Published Phenotype” value is reported as “Evokes Ca^2+ signaling in sperm”.

Regarding `CC1(C)CC=C(c2ccccc2)c2cc(/C=C/c3ccc(C(=O)O)cc3)ccc21` [BMS-189453], the “Published Phenotype” value is reported as “Interferes with spermatogenesis”.

Turning to `Nc1ccc(-c2ccc3ncc4ccc(=O)n(-c5cccc(C(F)(F)F)c5)c4c3c2)cn1` [Torin 2], the “Published Phenotype” value is given as “Enhances sperm motility”.

Regarding `CCc1cc(Nc2nccc(-c3c(-c4ccc(OC)c(C(=O)Nc5c(F)cccc5F)c4)nc4ccccn34)n2)c(OC)cc1N1CCC(N2CCN(S(C)(=O)=O)CC2)CC1` [GSK1904529A], the “Published Phenotype” value is reported as “Inhibition of hyperactivation”.

As for `CC(=O)N1CCC(C(=O)N(CCCN2CCN(Cc3ccc(F)cc3)CC2)c2ccc(C)c(Cl)c2)CC1` [B07 hydrochloride], the “Published Phenotype” value was “Reduction of sperm motility”.

As to `CC(C)[C@H]1c2ccc(F)cc2CC[C@@]1(CCN(C)CCCc1nc2ccccc2[nH]1)OC(=O)C1CC1` [NNC 55–0396 dihydrochloride], the “Published Phenotype” value is given as “Blocks ccl-20 induced Ca^2+ response; Modulates CatSper”.

As to `COC(=O)c1c(C)[nH]c(C)c1C(=O)c1ccccc1Cc1ccccc1` [FPL 64176], the “Published Phenotype” value is given as “Modulates evoked Ca^2+ response”.

As for `O=C(c1cccs1)c1no[n+]([O-])c1C(=O)c1cccs1` [HC-056456], the “Published Phenotype” value was “Blocks Ca^2+ and Na^+ entry; blocks onset of hyperactive motility”.

Take `CC(C)Cn1cnc2c(N)nc3ccccc3c21` [Imiquimod]: the “Published Phenotype” value was “Reduction of sperm motility; only sperm with X chromosome”.

Regarding `CC(C)c1ccc2c(c1)CC[C@H]1[C@](C)(CN)CCC[C@]21C` [Leelamine hydrochloride], the “Published Phenotype” value is reported as “Modulates P4 evoked Ca^2+ response”.

For the molecule B1, the “Published Phenotype” value is “Interferes with liquefaction; reduces sperm motility”.
